{"source": "patent US9474749B2", "about": "(priority 2004, dated 2016)", "key": {"[1]": {"system": "BACE-2", "assay": "BACE-2 mRNA expression in HTB-11 cells (RT-PCR)", "conditions": "morphine, 24 hours", "procedure": "(§9) SH-SY5Y human neuroblastoma cells (ATCC, USA) were cultured in Dulbecco's modified Eagle's medium/Ham's nutrient mixture (DMEM-F12) (Invitrogen, USA), and HTB-11 human neuroblastoma cells (ATCC, USA) were cultured in Minimum Essential Medium Alpha Medium (MEM-α) (Invitrogen, USA). […] All treatments were performed under a sterile hood.\n(§10) After the treatment time-period, cells were harvested, and total RNA was extracted using RNeasy RNA Isolation kit (Qiagen) following the manufacturer's procedures. Total RNA yield was determined using a Spectrophotometer RNA/DNA calculator (Pharmacia Biotech). Total RNA concentration was then standardized for semi-quantitative RT-PCR, which was carried out in a Geneamp Thermocycler PCR System 9700 (P.E. Applied Biosystems). […] PCR products and a 100 bp DNA marker were then loaded in a 2% agarose gel stained with ethidium bromide. Gel electrophoresis was performed using a power-supply (E-C Apparatus Corp.) set at 110V with constant amperage for 1.5 hours. Gels were then photographed using a Gel Documentation System (UVP), and bands analyzed using Gel-Pro Analyzer (MediaCybernetics) on a P4 Windows machine."}, "[2]": {"system": "Ubiquitin", "assay": "Free ubiquitin (Western blot)", "type": "cell-based, human", "protocol": "(§1) To determine protein concentrations, protein was harvested using the following buffer: 20 mM Hepes (Sigma), 100 mM NaCl (Fisher), 10 mM NaF (Sigma), 1% Triton X-100 (Sigma), 1 mM sodium orthovanadate (Sigma), 10 mM EDTA (Sigma), pH 7.4, 0.1% protease inhibitor cocktail (Sigma), and ddH2O. Homogenized samples were spun in an ultracentrifuge at 10,000G for 20 minutes at 4° C. Concentration was determined via the Bradford assay (Bio-Rad) using bovine serum albumin (BSA, Sigma) for standard curve. To eliminate any potential pipetting error, samples and standards were read in triplicate.\n(§2) Western blotting was performed as follows. SDS-polyacrylamide gels (12% for separation and 5% for stacking) were made using the Mini Trans-Blot Cell (Bio-Rad). Based on the concentrations from the protein concentration determination assay, the proteins were mixed with 2× Protein Loading Buffer (0.2M DTT) for a final volume of 24 μL. Tris-Glycine Electrophoresis Buffer (1×) was used in SDS-PAGE, and proteins were separated at constant amperage (35 mA).\n(§3) Subsequent protein transfer to a nitrocellulose membrane involved use of the Mini Trans-Blot Cell apparatus run at constant voltage (100V) for 40 minutes. […]\n(§4) Substrate (Pierce) was administered as a means of stimulating chemiluminescence. Blots were developed and subsequently analyzed for relative band intensity using Gel-Pro software (Applied Biosystems)."}, "[3]": {"system": "26S proteasome", "assay": "Chymotrypsin activity of the 26S proteasome (fluorometric)", "type": "cell-based, human", "protocol": "(§5) Proteasome function assays were performed in an effort to examine the modulation in levels of protein degradation. Fluorometric assays were performed for both the chymotrypsin activity of the 26S proteasome as well as activity of the whole 20S proteasome using procedures adapted from Kotamraju et al. (Proc. Natl. Acad. Sci. USA, 100:10653-8 (2003)). Excitation at 365 nm and emission at 460 nM of the fluorogenic compound, […] (AMC), were measured using a Spectrofluoroscence Detector (McPherson)."}, "[4]": {"system": "SH-SY5Y cells", "procedure": "At various time points (initial and 1, 2, and 7 days), the cells were washed in phosphate buffered saline (PBS), placed in 250 μL PBS, and assessed for NO release. NO release was measured using an Apollo-4000 free radical analyzer with a 30 μm probe. The probe was calibrated daily with SNAP. Each assay was performed in quadruplicate. The mean±the standard error were graphed for each time point."}, "[5]": {"system": "pedal ganglia", "assay": "NO release from excised pedal ganglia (NO-selective microprobe)", "type": "cell-based, Mytilus edulis", "protocol": "For the nitric oxide assay, ten pedal ganglia (per determination) dissected from M. edulis were bathed in 1 mL sterile phosphate buffered saline (PBS). […] For the opiate receptor antagonist experiments, ganglia were pretreated with naloxone for 10 minutes prior to reticuline addition. NO release was monitored with an NO-selective microprobe manufactured by World Precision Instruments (Sarasota, Fla.). The sensor was positioned approximately 100 μm above the respective tissue surface. […] The NO detection system was calibrated daily. The probe was allowed to equilibrate for 10 minutes in the incubation medium free of tissue before being transferred to vials containing the ganglia for another 5 minutes. Manipulation and handling of the ganglia was only performed with glass instruments. Data was acquired using the Apollo-4000 free radical analyzer (World Precision Instruments, Sarasota, Fla.). The experimental values were then transferred to Sigma-Plot and -Stat (Jandel, Calif.) for graphic representation and evaluation."}, "[6]": {"system": "human immune and vascular tissues", "assay": "NO release from human immune and vascular tissues", "type": "cell-based", "conditions": "morphine 10^−6 M"}, "[7]": {"system": "20S Proteasome X Subunit (β5)", "assay": "20S proteasome X subunit mRNA expression (RT-PCR)", "type": "cell-based, human", "conditions": "morphine 5 μM, 24 hours; control 0.716±0.015", "protocol": "(§6) Isolation of total RNA was performed via RNA MiniPrep Kit (QIAGEN). Concentration of RNA was determined via GeneQuant II Spectrophotometer (Pharmacia Biotech) by multiplying A260 value with dilution factor and nucleic acid constant (0.04). Agarose gel electrophoresis (1%) was used to check for RNA quality.\n(§7) RT and PCR reactions were performed in GeneAmp PCR System 9700 (Applied Biosystems) using reverse transcriptase and Taq DNA Polymerase. Forward and reverse gene specific-primers for various subunits of the 20S proteasome and immunoproteasome were either obtained from the literature or designed through Primer Express Software 2.0 (Applied Biosystems) (Table 4). NMDA receptor subunit primers were also designed (Table 4). NMDA receptor expression was used as a marker of neurodegenerative disease.\n(§8) All primers were optimized for annealing temperatures and cycles (Table 5). Gel electrophoresis (2% agarose, 0.01% ethidium bromide) was performed and analyzed using a UV transilluminator (UVP) and GelPro Analyzer Software (Applied Biosystems). Relative band intensity was normalized with β-Actin reference gene."}, "[8]": {"system": "human saphenous veins", "assay": "NO release from human saphenous veins", "conditions": "2×10^−7 M morphine"}, "[9]": {"system": "Mytilus animals", "assay": "TNF-α-induced death of animals", "conditions": "morphine 10^−7 M daily for four days pre-treatment", "procedure": "100 healthy Mytilus animals were treated with 10 U/mL of TNF-α by injection."}, "[10]": {"system": "20S Proteasome LMP7 Subunit (β5i)", "assay": "LMP7 immunoproteasome subunit mRNA expression (RT-PCR)", "type": "cell-based, human", "protocol": "as §6, §7, §8"}, "[11]": {"system": "20S Proteasome X (β5) Subunit", "assay": "20S proteasome X subunit protein (Western blot)", "type": "cell-based, human", "protocol": "as §1, §2, §3, §4"}, "[12]": {"system": "BACE-1", "assay": "BACE-1 mRNA expression in HTB-11 cells (RT-PCR)", "conditions": "24 hours", "procedure": "as §9, §10"}, "[13]": {"system": "NMDA NR2B Subunit", "assay": "NMDA NR2B subunit mRNA expression (RT-PCR)", "type": "cell-based, human", "protocol": "as §6, §7, §8"}, "[14]": {"system": "20S proteasome", "assay": "Activity of the whole 20S proteasome (fluorometric)", "type": "cell-based, human", "protocol": "as §5"}, "[15]": {"system": "NMDA NR1 Subunit", "assay": "NMDA NR1 subunit mRNA expression (RT-PCR)", "type": "cell-based, human", "protocol": "as §6, §7, §8"}, "[16]": {"system": "pedal ganglia", "assay": "NO release after daily morphine injections (tolerance)", "type": "in vivo, Mytilus", "protocol": "45 Mytilus animals were divided into three groups. […] Two hours post-injection, NO release was measured."}, "[17]": {"system": "SK-N-SH neuroblastoma cell line", "assay": "NO release from SK-N-SH neuroblastoma cells", "conditions": "morphine sulfate 5 μM; baseline 2 nM NO", "procedure": "The human SK-N-SH neuroblastoma cell line (ATCC #HTB-11) was used as a cellular model. Cells were propagated in Minimum Essential Medium alpha (MEMα) with 10% fetal bovine serum (FBS), 2% penicillin/streptomycin, 1.5 g/L NaHCO3, and 1.0 mM pyruvic acid. A 5% CO2 incubator (NAPCO) at 37° C. was used for maintenance of temperature and pH. […] When needed, cells were plated in 6- or 12-well plates using a hemocytometer (2×10^5 cells/well in 6-well plates or 1×10^5 cells/well in 12-well plates). Experimental manipulations were performed under sterile conditions under a lamina airflow hood after cells had adhered to the bottom of the plates."}, "[18]": {"system": "SK-N-SH neuroblastoma cell line", "assay": "Cellular morphology (Form Factor) of neuroblastoma cells", "type": "cell-based, human", "conditions": "concomitant morphine and IFNγ", "procedure": "Cell viability was determined via Trypan blue exclusion. An inverted light microscope (Nikon) with a phase-contrast filter was used to observe the cells. Pictures of the cells were taken via a digital camera (Optronix) attached to the microscope ocular. Images were uploaded onto ImagePro Plus Software (Applied Biosystems), where cell viability was calculated based on both the number of cells covering the field and the cells that present as dead from the stain. In addition, ImagePro Plus was used for determining cellular morphology. The area and perimeter were found and used in the formula (4π*Area)/(Perimeter)^2, resulting in a value between 0 (a straight line) and 1 (a perfect circle)."}, "[19]": {"system": "immunocytes", "assay": "LPS activation of hemolymph cells from morphine pre-treated animals", "conditions": "single pre-treatment, morphine 10^−6 M, LPS 1 μg/mL"}, "[20]": {"system": "Immunoproteasome LMP7 (β5i) Subunit", "assay": "LMP7 polypeptide expression (Western blot)", "type": "cell-based, human", "conditions": "36 and 48 hours", "protocol": "as §1, §2, §3, §4"}}, "note": "Several values for one entry are separate records, joined by “and”; a condition that tells them apart may be missing. Identical values can stand only once. Like-named read-outs stand apart in the source and are kept apart here."}
{"smiles": "CN1CC[C@]23c4c5ccc(O)c4O[C@H]2[C@@H](O)C=C[C@H]3[C@H]1C5", "note": "[Morphine, morphine]", "values": [{"measurement": "BACE-2 expression", "setting": "[1]", "value": "up regulates the expression of BACE-2"}, {"measurement": "free ubiquitin", "setting": "[2]; 1 μM morphine, control 44", "value": 64, "unit": "AU"}, {"measurement": "free ubiquitin", "setting": "[2]; 5 μM morphine", "value": 125, "unit": "AU"}, {"measurement": "activity of the chymotrypsin functional 26S active site", "setting": "[3]", "value": "277 ± 8.0", "unit": "pM"}, {"measurement": "NO release", "setting": "[4]; 10^−6 M morphine daily for six days, 10^−6 M on the seventh day", "value": 3.4, "unit": "nM"}, {"measurement": "NO release", "setting": "[4]; morphine 10^−6 M", "value": "3 to 4", "unit": "nM"}, {"measurement": "NO Peak Level", "setting": "[5]; ligand 10^−7 M", "value": "24.3 ± 3.1", "unit": "nM"}, {"measurement": "NO Peak Time", "setting": "[5]; ligand 10^−7 M", "value": "0.8 ± 0.2", "unit": "min"}, {"measurement": "duration of ganglionic NO release", "setting": "[5]; reticuline 10^−7 M, morphine 10^−6 M", "value": 5, "unit": "min"}, {"measurement": "NO release", "setting": "[6]", "value": "26 to 29", "unit": "nM"}, {"measurement": "proteasomal X subunit mRNA expression", "setting": "[7]", "value": "0.868±0.007", "unit": "AU"}, {"measurement": "NO released", "setting": "[8]", "value": "7 ± 2", "unit": "nM"}, {"measurement": "effect on TNF-α-induced death", "setting": "[9]", "value": "reduced the number of animals that died"}, {"measurement": "LMP7 mRNA expression", "setting": "[10]; 5 μM morphine with rotenone, 24 hours", "value": "0.792±0.001", "unit": "AU"}, {"measurement": "effect on IFNγ-induced LMP7 mRNA", "setting": "[10]; p<0.034", "value": "blocked the LMP7 increase induced by IFNγ"}, {"measurement": "X subunit protein band intensity", "setting": "[11]", "value": "162 AU and 188 AU and 168 AU and 154 AU"}, {"measurement": "down regulation of BACE-1 expression", "setting": "[12]; 1 μM morphine", "value": 44, "unit": "%"}, {"measurement": "down regulation of BACE-1 expression", "setting": "[12]; 5 μM morphine", "value": 18, "unit": "%"}, {"measurement": "NR2B expression", "setting": "[13]", "value": "1.09±0.06 AU and 1.17±0.04 AU"}, {"measurement": "20S proteasome activity", "setting": "[14]", "value": "decrease in 20S proteasomal function"}, {"measurement": "NR1 expression", "setting": "[15]", "value": "1.40±0.056", "unit": "AU"}, {"measurement": "NO release on day one versus days two, three, and four", "setting": "[16]; 0.01 μM morphine daily", "value": "level similar"}, {"measurement": "NO release after four days versus day one", "setting": "[16]; 1 μM morphine daily", "value": "substantially lower"}, {"measurement": "NO release on 10 μM morphine challenge versus one day of 1 μM", "setting": "[16]; 1 μM morphine for four days", "value": "about half"}, {"measurement": "peak NO release", "setting": "[17]", "value": 22.3, "unit": "nM"}, {"measurement": "Form Factor (FF)", "setting": "[18]", "value": "0.58±0.01"}, {"measurement": "activation of LPS-treated cells", "setting": "[19]", "value": "19.3±3.8", "unit": "%"}, {"measurement": "effect on IFNγ-stimulated LMP7 polypeptide expression", "setting": "[20]", "value": "blocked this action"}]}
